According to patent publication US8232318B2, “Approaches to treat cancer using HB-EGF inhibitors” (The General Hospital Corporation, priority 2009, dated 2012):
Entries after “also recorded” stand apart in the source; their conditions may differ.

What was measured:
[1] = mouse ear inflammatory test; cited from earlier work
methioninase = conditions: cited from earlier work
DNA polymerases = conditions: cited from earlier work
mammary tumor = assay: Spontaneous tumor model (MMTV-PyVT transgenic mice); type: in vivo; conditions: 5 mg/kg daily i.p. for 28 days, vs DMSO
Source text: Mice with a spontaneous tumor model (MMTV-PvVT (FVB/N-Tg) transgenic mice; NCI repository) develop multifocal mammary tumor (from hyperplasia to metastatic) with a high incidence of metastasis. This mouse model has been widely used for the correlation studies of human cancer (Guy et al., Moll. Cell. Biol. 12: 954-961, 1992). In addition, this mouse model has been used to evaluate the effectiveness of potential drug therapies. Generally, due to aggressiveness of tumor growth and spread in this mouse-model, only a combination of chemo-drugs is effective in tumor growth inhibition in this mouse model.
MMTV-PyVT mice were maintained until mammary tumor size reached to 6 mm, and then treated with myrsinoic acid A (NP2008) (5 mg/kg) or vehicle (DMSO) daily by i.p. for 28 days.

EJ cells = assay: Clonogenic assay of EJ cells; type: cell-based, human; conditions: for colony growth: EJ cells, 5 μM, grown for two weeks
Procedure: Aliquots of one hundred EJ cells were plated out in petridish (60 mm size) and allowed to establish themselves. […] After exposure, the cells were grown for two weeks without changing the medium, and the number of cell colonies were counted.

HB-EGF = target: T1, HB-EGF (Homo sapiens, UniProt Q99075); assay: Surface Plasmon Resonance (Biacore) binding to immobilized HB-EGF; conditions: SPR, compound 0.78 uM-50 uM, 25° C.
T1 construct: lyophilized HB-EGF protein (R&D Systems) was dissolved in either water or PBS buffer; purchased R&D Systems
T1 sequence (Q99075 63-148 limits assumed): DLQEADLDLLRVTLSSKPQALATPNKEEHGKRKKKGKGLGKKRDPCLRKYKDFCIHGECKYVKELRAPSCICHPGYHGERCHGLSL
Procedure: A Biacore™ T100 (GE Healthcare, Uppsala, Sweden) was used to perform the Surface Plasmon Resonance (SPR) experiments. Sensor surface preparation and interaction analyses experiments were performed at 25° C. Prior to surface preparation, lyophilized HB-EGF protein (R&D Systems) was dissolved in either water or PBS buffer, at pH 7.4 and protein purity determined by Nu-Page 4-12% Bis-Tris gel in MOPS (3-(N-Morpholino)-propanesulfonic acid) buffer with a silver stain sensor preparation. HB-EGF was immobilized onto series S sensor chip CM4 via a standard N-ethyl-N′-(dimethyl-aminopropyl)carbodiimide/N-hydroxysuccinimide (EDC/NHS) amine coupling procedures. HB-EGF was diluted to 10 μg/mL in 10 mM sodium acetate pH5.5 for these procedures and resultant immobilization levels were 1000-1200 R.U.s. (R.U.: […]). Control surfaces were prepared similarly without protein derivatization and utilized as a reference surfaces for compound binding experiments. For compound interaction analyses, 0.01 M Hepes, pH7.4, 0.15 M NaCl, 0.05% Surfactant P20 and 5% DMSO was used. Compound samples were prepared by serial dilution in the range 0.78 uM-50 uM and flowed over control and derivatized surfaces for two minutes at a flow-rate of 80 μL/min. Zero concentration blank buffer cycles were included as negative control samples. […]

[2] = tested on: human normal (non-cancerous) breast epithelial cells; assay: Toxicity in human primary normal (non-cancerous) cells; type: cell-based; conditions: 5 and 10 microM (Iressa 5 microM), 24-96 hours, Alamar Blue and cell death assays
Procedure: The cultures were subsequently stained with crystal-violet blue to evaluate the number of live cells. […] The number of dead cells was determined by Alamar Blue staining as well as Cyto-Flow-cell death assays from Promega (Madison, Wis.).

[3] = tested on: phospho-EGFR, phospho-Her3/ErbB3 and phospho-AKT; assay: EGFR signaling in Iressa resistant SKBR3 cells by Western blot; type: cell-based, human; conditions: longer exposure (up to 96 hours)
Procedure: After treatment, total cell lysates were isolated and analyzed by Western blot analysis. The cells were evaluated for the presence of phospho-EGFR, phospho-Her3/ErbB3 and phospho-AKT.

EJ cells or A549 cells = assay: Lung or bladder tumor xenograft in nude mice; type: in vivo; conditions: intraperitoneally 1 mg/kg every 48 hours for 42 days, vs control DMSO-administered mice
Procedure: Lung or bladder tumor xenograft-bearing mice were treated with myrsinoic acid A to evaluate its in vivo anti-tumor effect. A total of 2×10^6 EJ cells or A549 cells were implanted subcutaneously on opposite site flanks in each nude/nude mice (Charles River, Mass.). There were six mice in each group. When tumor masses grew to ˜2-5 mm in diameter, myrsinoic acid A (NP2008) was administered intraperitoneally (total 1 mg/kg) every 48 hours for 42 days.

EJ cancer cells = assay: Cytotoxicity assay (sulforhodamine B) in EJ cancer cells; type: cell-based, human; conditions: high and low confluent density, FIG. 10 legend
Procedure: DMSO treatment was used as a control. Cells were stained with 0.4% sulforhodamine B three days after treatment. The results are shown in FIG. 10 A (cells started with higher confluent density) and FIG. 10 B (treatment experiments performed with lower confluent density). FIG. 10 C (low confluent) and FIG. 10 D show the result of a time curve experiment wherein aliquots of cells were stained at 24, 48, 72 and 96 hours.

[4] = tested on: human cancer cells including breast cancer cells, bladder cancer cells, colon cancer cells, and lung cancer cells; assay: Tumor cell growth inhibition / viable cells by crystal-violet staining; type: cell-based
Source text: The ability to suppress the growth of cancer cells was again seen at micromolar potencies (2.5-10 microM) and was concentration dependent. […] Viable cells are shown with crystal-violet cell staining.

[5] = tested on: human cancer cells including breast cancer cells, bladder cancer cells, colon cancer cells, and lung cancer cells; assay: Induction of cell death/apoptosis in a panel of human cancer cells; type: cell-based
Source text: We evaluated the ability of myrsinoic acid A (NP2008) to suppress cell growth and induce apoptosis in a panel of human cancer cells.

[6] = concentration dependent, wildtype or mutated p53 cell lines

CC(C)=CCCC(C)(O)C1Cc2cc(C(=O)O)cc(CC=C(C)C)c2O1 (centres unmarked) [myrsinoic acid B]
anti-inflammatory activity [1]: act as anti-inflammatory compounds | methioninase inhibition (methioninase): methioninase inhibitor

CC(C)=CC/C=C(\C)C1Cc2cc(C(=O)O)cc(CC=C(C)C)c2O1 (centres unmarked) [myrsinoic acid F]
anti-inflammatory activity [1]: act as anti-inflammatory compounds; also recorded: most potent anti-inflammatory compound

CC(C)=CCC/C(C)=C/Cc1cc(C(=O)O)cc(CC=C(C)C)c1O [myrsinoic acid A, 3-geranyl-4-hydroxy-5-(3′-methyl-2′butenyl)-benzoic acid]
DNA polymerase inhibition (DNA polymerases): inhibitor of some DNA polymerases | anti-inflammatory activity [1]: act as anti-inflammatory compounds | tumor mass (mammary tumor): significant reduction in tumor mass | colony growth (EJ cells): did not show any colony growth | suppression of growth of EJ cells compared with radiation or Iressa (EJ cells; clonogenic assay, FIG. 9 legend): more effective | binding to HB-EGF (HB-EGF): binding | cytotoxicity in normal cells [2]: less cytotoxicity in normal cells than Iressa; also recorded: non-toxic | phospho-EGFR, phospho-HER3 and phospho-AKT on longer exposure [3]: long term suppression | tumor growth (EJ cells or A549 cells): significant tumor-growth suppression | suppression of cancer cell proliferation compared with Iressa (EJ cancer cells): more potent suppressor of cancer cell proliferation than Iressa | number of viable cells ([4]; EJ, HCT116, MDA-MD486 and A549 cells, crystal-violet staining (FIG. 6)): decrease in the number viable cells | potencies at which growth of cancer cells is suppressed [4, 6]: 2.5 to 10 µM | cell death ([5]; EJ human bladder cancer cells and HCT116 human colon cancer cells (FIG. 5)): induces cell death | potencies at which apoptosis is induced [5, 6]: 2.5 to 10 µM

CC(C)=CCC/C(C)=C/Cc1cc(C(=O)O)cc(C/C=C(\C)CCC=C(C)C)c1O [myrsinoic acid E]
anti-inflammatory activity [1]: act as anti-inflammatory compounds

CC(C)=CCC[C@]1(C)Oc2c(CC=C(C)C)cc(C(=O)O)cc2C[C@@H]1O [myrsinoic acid C]
anti-inflammatory activity [1]: act as anti-inflammatory compounds

COc1cc2ncnc(Nc3ccc(F)c(Cl)c3)c2cc1OCCCN1CCOCC1 [Iressa, reference compound]
colony growth (EJ cells): did not show any colony growth
